From patent US20100311674A1, “PHARMACEUTICAL COMPOSITIONS WITH A MECHANISM OF MULTI-TARGET RECEPTOR RETROACTION FOR TREATING DEPRESSION” (Yu-Fen Chi, priority 2007, published 2010)

Columns and labels:
Assay type in all cases: in vivo
[1] = test system: ICR mice; assay: Mouse tail-hanging experiment (Experiment 1)
Protocol: 1.1 Experimental animals: ICR mice, male, 22.0±2 g of body weight, secondary, are provided by the Experimental Animal Science Department of Capital Medical University, Beijing. 1.2 Experiment pharmaceuticals: The pharmaceutical of Embodiment 1 is provided by Beijing Wonner Biotech. […] High dose of Embodiment 1 (80 mg/kg/d); 2. middle dose of Embodiment 1 (40 mg/kg/d); and 3. low dose of Embodiment 1 (20 mg/kg/d). 1.5.1 Group division and administration of drug: The mice are grouped randomly, and 10 mice are in each group. 1. High dose of Embodiment 1 (80 mg/kg, per oral (P.O.), administered for 7 days); 2. middle dose of Embodiment 1 (40 mg/kg, P.O., administered for 7 days); 3. low dose of Embodiment 1 (20 mg/kg, P.O., administered for 7 days); 4. […] After 1 hour of the last administration of drug, the mouse tail-hanging experiment is proceeded. 1.5.2 Experimental method: The mouse's tail (1 cm to the tail end) is taped on the wood strip higher than the platform for 5 cm and hung up for 6 minutes. The time of non-movement of the mouse for the last 5 minutes is recorded. 1.5.3 Statistic calculation: The experimental data are represented as X±SD, and the experimental result is calculated as analysis of variance (ANOVA) by SPSS 11.5 statistic software.

[2] = test system: ICR mice; assay: Resetpine-induced mouse body temperature decrease experiment (Experiment 2)
Excerpt: 2.1 Experimental animals: ICR mice, male, 22.0±2 g of body weight, secondary, are provided by the Experimental Animal Science Department of Capital Medical University, Beijing.
2.2 Experiment pharmaceuticals: The pharmaceutical of Embodiment 1 is provided by Beijing Wonner Biotech. Ltd. Co., Paroxetine (Paxil) is the product of Thong Mei Tianjin Smith Kline pharmaceuticals Co. Ltd., and Resetpine is the product of Guangdong BangMin Pharmaceutical Co., Ltd.
2.4 Dose designs: 1. High dose of Embodiment 1 (80 mg/kg/d); 2. middle dose of Embodiment 1 (40 mg/kg/d); and 3. low dose of Embodiment 1 (20 mg/kg/d).
2.5.1 Group division and administration of drug: The mice are grouped randomly, and 10 mice are in each group. 1. High dose of Embodiment 1 (80 mg/kg, P.O., administered for 7 days); 2. middle dose of Embodiment 1 (40 mg/kg, P.O., administered for 7 days); 3. low dose of Embodiment 1 (20 mg/kg, P.O., administered for 7 days); 4.
2.5.2 Experimental method: After 1 hour of the last administration of drug on the eighth day, the mouse's anal temperature is determined. […] After 4 hours of injecting Resetpine, the mouse's anal temperature is determined once again. […]
2.5.3 Statistic calculation: The experimental data are represented as X±SD, and the experimental result is calculated as ANOVA by SPSS 11.5 statistic software.

[3] = test system: rat olfactory bulb lesion model; assay: Step through test (passive avoidance) of the rat olfactory bulb lesion model (Experiment 7); conditions: 2 mg/kg/d into the stomach, 24 days
Protocol: Olfactory bulb lesion model: Health Wistar male rats, secondary, 330±20 g of body weight, are purchased from Beijing Vital River Experimental Animal Technology Ltd. Co. (The quality certificate number: SCXK (JING) 2002-2003).
The above pharmaceuticals are prepared with 0.5% of sodium carboxymethylcellulose (CMC-Na) for feeding into the stomach. Benzylpenicillin sodium for injection is the product of North China Pharmaceutical Huasheng Co. Ltd. (Lot: S0511204), and norepinephrine (NE) and 5-hydrotryptamine (5-HT) standards are the products of Sigma Co. Other reagents are all marketed.
7.4.1 Group division and administration of drug: The rats are grouped randomly into 6 groups. 1. […]
7.5.2 Passive avoidance experiment (Step-through test): The step through box is configured by the light chamber and the dark chamber, and a channel is linked between the bright chamber and the dark chamber for mouse entrance and exit. […] The time that the rat enters into for the first time is recorded (electric-shocking latent period), and the time thereof is the learning record. […]
7.6 Statistic calculation: The experimental data are represented as X+SD, and the experimental result is calculated as ANOVA by SPSS 11.5 statistic software.

[4] = test system: NE and 5-HT contents in the rat cerebral cortex; assay: HPLC-electrochemical test of NE and 5-HT contents in the rat cerebral cortex, unpredictable long-term stimulus model (Experiment 8); conditions: 2 mg/kg/d into the stomach, 24 days
Protocol: Unpredictable long-term stimulus model: Health Wistar male rats, secondary, 240˜270 g of body weight, are purchased from Beijing Vital River Experimental Animal Technology Ltd. Co. (The quality certificate number: SOCK (JING) 2002-2003).
8.4.1 Group division and administration of drug: The rats are grouped randomly into 6 groups. […] The test drugs and the positive control drug are prepared with 0.5% of CMC-Na for feeding into the stomach once every day.
Unpredictable long-term stimulus model: The rats in the control group eat and drink normally, and there is no stimulus performed. […]
8.5.6 HPLC-electrochemical test: The amounts of norepinephrine and 5-hydrotryptamine in the rat cerebral cortex are measured.
8.6 Statistic calculation: The experimental data are represented as 7±SD, and the experimental result is calculated as ANOVA by SPSS 11.5 statistic software.

Structure (SMILES): Fc1ccc([C@@H]2CCNC[C@H]2COc2ccc3c(c2)OCO3)cc1 [Paroxetine]
- Time of non-movement ([1]; 3 mg/kg P.O. 7 days, 1 h after last dose, last 5 of 6 min): 75.33 ± 22.91 s
- Effect on time of non-movement after the mouse's tail is hung up (in words) ([1]; high and middle doses of Embodiment 1, Paroxetine, significantly different from control): decrease the time of non-movement
- Decreased temperature ([2]; 3 mg/kg P.O. 7 days, 4 h after Resetpine 2 mg/kg i.p.): 2.38 ± 0.69 °C
- Effect on reduced body temperature induced by Resetpine (in words) ([2]; high, middle and low doses of Embodiment 1, Paroxetine): decrease the reduced body temperature induced by Resetpine
- Latent period of the 1st day ([3]; learning record): 181.87 ± 90.54 s
- Latent period of the 2nd day ([3]; memory record): 265.00 ± 65.39 s
- NE [4]: 220.5419 ± 38.32 nmol/L brain tissue extract
